In US9873693B2 (Sunesis Pharmaceuticals, Inc., priority 2006, dated 2018):

What was measured:
Phospho-T308 Akt = Phospho-T308 Akt detection using immunoblot (western blot) in PC-3 cells; format: cell-based; conditions: 2 μM or 5 μM, concentration not given
Procedure, shortened: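 PC-3 prostate cells, cultured overnight in F12K plus 10% FBS, were treated for 2 h at 37 °C in serum-free medium with compound A (1000× DMSO dilutions). Lysate protein was immunoblotted with anti-phospho-Akt Thr308. Bands were quantified by background-subtracted densitometry, giving EC50 by non-linear regression and percent decrease at 2 μM and 5 μM.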

phosphorylated PDK1 = phosphorylated PDK1 (Homo sapiens (Human), UniProt O15530); experiment: PDK1 kinase assay (coupled PDK1/AKT/FAM-crosstide, IMAP); format: biochemical; conditions: 0.5 nM phosphorylated PDK1, 24 μM ATP; read-out: Inhibition of phospo-PDK1 in vitro IC50
Sequence of phosphorylated PDK1 (O15530 51-360): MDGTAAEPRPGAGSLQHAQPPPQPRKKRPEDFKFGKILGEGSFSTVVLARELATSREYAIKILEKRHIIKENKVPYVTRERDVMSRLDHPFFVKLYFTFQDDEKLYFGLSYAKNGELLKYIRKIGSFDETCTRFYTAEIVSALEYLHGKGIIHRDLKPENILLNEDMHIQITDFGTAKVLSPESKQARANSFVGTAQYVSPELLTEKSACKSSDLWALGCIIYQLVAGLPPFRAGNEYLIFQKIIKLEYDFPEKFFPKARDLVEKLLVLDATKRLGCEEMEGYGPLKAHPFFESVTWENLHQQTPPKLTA

phospho-akt (Thr308) = phospho-akt (Thr308) MSD ELISA in PC-3 cells; format: cell-based; conditions: Homo sapiens, PC-3, 2 h, PC-3 cells, 2 hours, no serum; read-out: Inhibition of P308 Akt in cells using MSD EC50
Procedure, shortened: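 Read-out is MSD electrochemiluminescence after lysate capture overnight at 4 degrees and 1 hr RT detection-antibody step. Before lysis, overnight-plated PC-3 cells received three-fold serial dilutions of inhibitor in serum-free medium, with DMSO-only high controls.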

full-length PDK1 = full-length PDK1 (Homo sapiens (Human), UniProt O15530); experiment: PDK phosphorylation of AKT and PKC-PIFtide in presence of PIP3 vesicles; format: biochemical; conditions: substrates PKC-PIFtide vs AKT2
Sequence of full-length PDK1 (O15530 whole entry): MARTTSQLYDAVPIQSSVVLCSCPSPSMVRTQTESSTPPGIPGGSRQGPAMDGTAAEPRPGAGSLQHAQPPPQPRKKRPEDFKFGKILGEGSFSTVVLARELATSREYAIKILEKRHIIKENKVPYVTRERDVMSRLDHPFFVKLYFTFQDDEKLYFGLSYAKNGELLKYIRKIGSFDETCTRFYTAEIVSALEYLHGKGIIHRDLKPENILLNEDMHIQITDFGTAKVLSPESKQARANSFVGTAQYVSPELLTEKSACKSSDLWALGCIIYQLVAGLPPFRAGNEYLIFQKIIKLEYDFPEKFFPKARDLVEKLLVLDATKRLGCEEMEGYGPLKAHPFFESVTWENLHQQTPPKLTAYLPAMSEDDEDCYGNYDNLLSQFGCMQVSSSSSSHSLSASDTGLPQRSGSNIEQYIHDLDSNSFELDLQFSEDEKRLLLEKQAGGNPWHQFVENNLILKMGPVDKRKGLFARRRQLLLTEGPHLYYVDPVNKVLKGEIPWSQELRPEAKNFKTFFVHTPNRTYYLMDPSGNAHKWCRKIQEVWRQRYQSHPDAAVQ
Experimental: PDK phosphorylation of two different substrates, AKT and PKC-PIFtide, was measured in presence of pre-formed phophoinositol lipid PIP3 vesicles. 5 nM full-length PDK1 and was incubated with 100 nM substrate (unphosphorylated, full-length AKT2 or PKC-PIFtide, Invitrogen cat#P2925) in presence of test compound or DMSO at room temperature for 3 hours. Final buffer conditions were 10 mM Tris pH 7.5 buffer containing 10 mM MgCl2, 0.002% Triton X-100, 1 mM DTT, 0.2 mg/ml BSA, 10 uM PtdIns(3,4,5)P3 (Matreya, Inc), 100 uM DOPC:DOPS (Avanti Polar Lipids), and 0.5 uCi γ^33P-ATP (3000 Ci/mmol, Perkin-Elmer.)
Kinase reactions were stopped with addition of 50 uM non-labelled ATP and 5 mM EDTA, then acidified with 0.5% final concentration phosphoric acid. Labeled proteins were collected in Whatman P81 filter plates and washed with three 150 ul volumes of 0.5% phosphoric acid.
Lipid vesicles were pre-formed as follows. 15 mg (3 ampules) DOPC:DOPS was resuspended in 898 ul 10 mM HEPES pH 7.4. 1 mg PIP3 was resuspended in 1000 ul 10 mM HEPES pH 7.4. 964 ul of PIP3 was mixed with 800 ul DOPC:DOPS and diluted with 18.2 ml 10 mM HEPES pH 7.4 and mixed by vortexing. The lipid mixture was subjected to 5 cycles of freeze/thaw using liquid nitrogen and a 50° C. water bath. Aliquot of lipids were flash frozen and stored at −20° C.

Compound: O=C(NCc1nc(-c2c[nH]c3ncccc23)cs1)c1cccn(Cc2ccc(F)c(F)c2)c1=O [Cpd 112]
- Percent Inhibition of phospho-Akt (308) By Western (Phospho-T308 Akt): d (inhibition of less than 25%)
- IC50 (phosphorylated PDK1): < 500 nM
- EC50 (phospho-akt (Thr308)): < 1000 nM
- Ratio of PIP3 IC50 with PKCtide to PIP3 IC50 with AKT (full-length PDK1): 71.9
